From patent US8000781B2, “Method of evaluating effect of prolonging QT interval in electrocardiogram” (Eisai R&D Management Co., Ltd., priority 2005, dated 2011)
Like-named read-outs stand apart in the source and are kept apart here.

Assays:
[1] = system: hamster under mixed anesthesia with pentobarbital and xylazine; conditions: n=5; for Influence on the QRS interval / Influence on the RR interval: over the doses tested
anesthetized dogs = conditions: calculated on the basis of the results of the cited report; cited from earlier work

SMILES | Degree of prolongation of the QT interval ([1]; 100 μg/kg iv) | Influence on the PQ interval ([1]; iv, doses tested 1, 10 and 100 μg/kg) | Influence on the QRS interval ([1]; iv) | Influence on the RR interval ([1]; iv) | Single dose for intravenous administration providing 10% of prolongation of the duration of monophasic action potential (anesthetized dogs) [mg/kg] | Degree of prolongation of the QT interval ([1]; 1 mg/kg iv)
COc1cc(N)c(Cl)cc1C(=O)NC1CCN(CCCOc2ccc(F)cc2)CC1OC (centres unmarked) [cisapride] | about 20% | did not significantly affect | did not significantly affect | did not significantly affect | 0.1 | 
CC(C)(C)c1ccc(C(O)CCCN2CCC(C(O)(c3ccccc3)c3ccccc3)CC2)cc1 (centres unmarked) [terfenadine] |  |  | did not significantly affect | did not significantly affect |  | about 20%
